Results published in the supplement of paper PMC10307832.

How the values were obtained:
Assay in all cases: relative viability (nuclei count vs DMSO), 5 days (fraction); higher = more cells survive
NCI-H520 = tested on: NCI-H520
Summary of the method: (§1)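 Values are medians from duplicate plates. Each reflects relative viability, defined as the nuclei count of treated wells over that of vehicle wells. Lung cancer cell lines in 1536-well plates were pin-tool dosed one day after seeding with one drug alone or with a fixed anchor-drug dose plus five library-drug doses (not always all listed) in √10 steps, then fixed, stained and imaged at 4× after 5 days.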

RERF-LC-KJ = tested on: RERF-LC-KJ
Summary of the method: as §1

A549 = tested on: A549
Summary of the method: as §1

Calu-6 = tested on: Calu-6
Summary of the method: as §1

IA-LM = tested on: IA-LM
Summary of the method: as §1

NCI-H1651 = tested on: NCI-H1651
Summary of the method: as §1

NCI-H1703 = tested on: NCI-H1703
Summary of the method: as §1

EBC-1 = tested on: EBC-1
Summary of the method: as §1

NCI-H1299 = tested on: NCI-H1299
Summary of the method: as §1

SMILES | relative viability (NCI-H520; first compound 0.04 µM) | relative viability (NCI-H520; first compound 0.1265 µM) | relative viability (NCI-H520; first compound 0.4 µM) | relative viability (NCI-H520; first compound 1.265 µM) | relative viability (RERF-LC-KJ; first compound 0.04 µM) | relative viability (RERF-LC-KJ; first compound 0.1265 µM) | relative viability (RERF-LC-KJ; first compound 0.4 µM) | relative viability (RERF-LC-KJ; first compound 1.265 µM) | relative viability (A549; first compound 0.04 µM) | relative viability (A549; first compound 0.1265 µM) | relative viability (A549; first compound 0.4 µM) | relative viability (A549; first compound 1.265 µM) | relative viability (Calu-6; first compound 0.04 µM) | relative viability (Calu-6; first compound 0.1265 µM) | relative viability (Calu-6; first compound 0.4 µM) | relative viability (Calu-6; first compound 1.265 µM) | relative viability (IA-LM; first compound 0.04 µM) | relative viability (IA-LM; first compound 0.1265 µM) | relative viability (IA-LM; first compound 0.4 µM) | relative viability (IA-LM; first compound 1.265 µM) | relative viability (NCI-H1651; first compound 0.04 µM) | relative viability (NCI-H1651; first compound 0.1265 µM) | relative viability (NCI-H1651; first compound 0.4 µM) | relative viability (NCI-H1651; first compound 1.265 µM) | relative viability (NCI-H1703; first compound 0.1265 µM) | relative viability (NCI-H1703; first compound 0.4 µM) | relative viability (NCI-H1703; first compound 1.265 µM) | relative viability (EBC-1; first compound 0.04 µM) | relative viability (EBC-1; first compound 0.1265 µM) | relative viability (EBC-1; first compound 0.4 µM) | relative viability (EBC-1; first compound 1.265 µM) | relative viability (NCI-H1299; first compound 0.04 µM) | relative viability (NCI-H1299; first compound 0.1265 µM) | relative viability (NCI-H1299; first compound 0.4 µM) | relative viability (NCI-H1299; first compound 1.265 µM) | relative viability (NCI-H1703; first compound 0.04 µM)
O=C(O)c1ccc(-c2c[nH]c3ncc(-c4ccccc4)cc23)cc1C1CCCC1 + CC1(C)CCC(c2ccc(Cl)cc2)=C(CN2CCN(c3ccc(C(=O)NS(=O)(=O)c4ccc(N[C@H](CCN5CCOCC5)CSc5ccccc5)c(S(=O)(=O)C(F)(F)F)c4)cc3)CC2)C1 [Navitoclax] (partner 0.5 µM) | 1.1 | 1.08 | 1.18 | 0.836 | 1.05 | 1.24 | 0.842 | 0.772 | 1.09 | 1.24 | 1.17 | 0.939 | 0.821 | 0.732 | 0.719 | 0.55 | 0.925 | 0.829 | 0.89 | 0.576 | 0.926 | 0.995 | 0.943 | 0.696 | 1.11 | 1.03 | 1.11 | 0.475 | 0.404 | 0.352 | 0.279 | 1.07 | 1.08 | 1.02 | 0.942 | –
O=C(O)c1ccc(-c2c[nH]c3ncc(-c4ccccc4)cc23)cc1C1CCCC1 + CC(C)C[C@H](NC(=O)[C@H](Cc1ccccc1)NC(=O)c1cnccn1)B(O)O [Bortezomib] (partner 0.002 µM) | 0.567 | 0.717 | 0.482 | 0.327 | 1.12 | 1.14 | 1.06 | 0.996 | – | – | – | – | 0.912 | 1 | 0.907 | 0.661 | 0.915 | 0.868 | 0.761 | 0.658 | 0.879 | 0.984 | 0.983 | 0.855 | 0.235 | 0.3 | 0.433 | 0.567 | 0.583 | 0.452 | 0.308 | 1.05 | 1.03 | 0.986 | 0.893 | –
O=C(O)c1ccc(-c2c[nH]c3ncc(-c4ccccc4)cc23)cc1C1CCCC1 + CS(=O)(=O)CCNCc1ccc(-c2ccc3ncnc(Nc4ccc(OCc5cccc(F)c5)c(Cl)c4)c3c2)o1 [Lapatinib] (partner 2 µM) | 1.01 | 0.858 | 0.847 | 0.604 | 0.8 | 0.848 | 0.832 | 0.825 | 1.01 | 0.985 | 0.899 | 0.837 | 1.02 | 1.09 | 0.984 | 0.78 | 0.913 | 1.03 | 0.974 | 0.782 | 0.856 | 0.867 | 0.826 | 0.472 | 1.44 | 1.06 | 0.929 | 0.224 | 0.215 | 0.227 | 0.242 | 0.945 | 1 | 0.938 | 0.829 | 1.11
